{"source": "patent US20190203253A1", "about": "“METHODS OF IDENTIFYING AND TREATING CANCER PATIENTS WITH AN EPHB6 DEFICIENCY” (University of Saskatchewan, priority 2016, published 2019)", "origin": "cited, not measured here", "test_system": "prostate cancer", "settings": "reference [26]; cited from earlier work", "data": [{"smiles": "O=C(Cc1ccc(-c2ccc(OCCN3CCOCC3)cc2)cn1)NCc1ccccc1", "note": "[KX2-391]", "values": [{"measurement": "clinical effect in phase II trials for prostate cancer", "result": "relatively modest effect"}]}]}
